Test results: ChEMBL document CHEMBL1201862, “PubChem BioAssay data set” (2004)
Calls of active or inactive are those of the source.

Molecular target: T1, Sentrin-specific protease 6 (Homo sapiens, UniProt Q9GZR1);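 also: Luminescence-based dose-response confirmatory assay of SENP6 inhibition, following up an ultra-high-throughput screen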
T1 sequence (Q9GZR1 whole entry): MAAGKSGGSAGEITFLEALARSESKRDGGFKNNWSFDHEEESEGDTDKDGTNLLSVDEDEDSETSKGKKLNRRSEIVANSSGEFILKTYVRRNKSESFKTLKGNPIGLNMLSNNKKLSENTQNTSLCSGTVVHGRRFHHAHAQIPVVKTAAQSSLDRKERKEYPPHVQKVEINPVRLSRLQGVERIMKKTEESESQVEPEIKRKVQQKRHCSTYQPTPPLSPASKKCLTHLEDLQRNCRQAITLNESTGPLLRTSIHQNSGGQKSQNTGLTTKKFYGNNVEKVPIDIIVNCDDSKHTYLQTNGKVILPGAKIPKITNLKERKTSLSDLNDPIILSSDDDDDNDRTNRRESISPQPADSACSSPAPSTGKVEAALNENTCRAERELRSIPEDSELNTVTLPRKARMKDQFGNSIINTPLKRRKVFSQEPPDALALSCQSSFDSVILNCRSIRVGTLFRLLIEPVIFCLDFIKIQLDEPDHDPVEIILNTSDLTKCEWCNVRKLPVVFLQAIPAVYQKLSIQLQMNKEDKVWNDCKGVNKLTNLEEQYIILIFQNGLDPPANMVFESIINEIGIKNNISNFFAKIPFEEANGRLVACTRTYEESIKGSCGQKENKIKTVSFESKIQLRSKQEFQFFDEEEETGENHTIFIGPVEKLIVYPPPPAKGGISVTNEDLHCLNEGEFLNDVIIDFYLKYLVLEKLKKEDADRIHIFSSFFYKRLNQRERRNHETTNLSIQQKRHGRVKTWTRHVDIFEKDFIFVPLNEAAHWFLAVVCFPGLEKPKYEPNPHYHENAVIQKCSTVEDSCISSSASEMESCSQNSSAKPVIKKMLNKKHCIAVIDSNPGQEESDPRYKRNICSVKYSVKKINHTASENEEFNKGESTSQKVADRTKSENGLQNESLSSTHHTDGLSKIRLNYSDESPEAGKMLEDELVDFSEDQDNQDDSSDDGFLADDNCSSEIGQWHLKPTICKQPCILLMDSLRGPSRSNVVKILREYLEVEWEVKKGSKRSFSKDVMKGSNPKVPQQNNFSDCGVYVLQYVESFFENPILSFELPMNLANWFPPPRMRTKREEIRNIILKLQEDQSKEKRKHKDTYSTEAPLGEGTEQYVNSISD
Type: functional

Compound | IC50
O=C(NC1=C(Nc2ccc(F)cc2)C(=O)c2ccccc2C1=O)c1ccc(Cl)cc1 | 8560 nM (active)
Oc1nc(Nc2ccc(F)cc2)cc2ccccc12 | 2990 nM (active)
CN(C)c1cc(N/N=C\c2ccccc2)nc(N(C)C)n1 | 6000 nM (active)

Molecular target: Protein kinase C theta type (Homo sapiens, UniProt Q04759)
Sequence (Q04759 whole entry): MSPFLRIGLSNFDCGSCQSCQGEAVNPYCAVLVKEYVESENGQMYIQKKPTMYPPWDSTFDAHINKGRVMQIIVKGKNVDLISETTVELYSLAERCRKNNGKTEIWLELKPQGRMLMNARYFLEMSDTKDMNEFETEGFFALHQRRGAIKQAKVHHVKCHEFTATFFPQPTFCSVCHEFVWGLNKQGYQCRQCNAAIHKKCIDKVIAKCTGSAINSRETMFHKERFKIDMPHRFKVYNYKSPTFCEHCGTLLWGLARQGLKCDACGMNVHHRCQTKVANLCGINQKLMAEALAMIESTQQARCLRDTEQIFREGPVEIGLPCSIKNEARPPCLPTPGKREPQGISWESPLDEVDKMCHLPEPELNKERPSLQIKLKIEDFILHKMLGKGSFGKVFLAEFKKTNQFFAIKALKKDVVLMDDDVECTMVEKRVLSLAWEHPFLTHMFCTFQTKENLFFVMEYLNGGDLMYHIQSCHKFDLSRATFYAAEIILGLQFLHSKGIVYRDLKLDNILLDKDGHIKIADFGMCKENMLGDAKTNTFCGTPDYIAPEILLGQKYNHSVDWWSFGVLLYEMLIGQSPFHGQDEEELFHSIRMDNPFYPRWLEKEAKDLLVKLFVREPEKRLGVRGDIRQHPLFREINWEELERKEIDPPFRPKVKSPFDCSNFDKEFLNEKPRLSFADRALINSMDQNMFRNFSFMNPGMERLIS
Experiment: Navigating the Kinome. Panel member name: PRKCQ
Type: functional

Compound | Ki
O=C1Nc2cc(-c3ccc(O)cc3)ccc2C1=Cc1ccc[nH]1 | 316 nM (active)
NC(COc1cncc(-c2ccc3c(c2)C(=Cc2ccc[nH]2)C(=O)N3)c1)Cc1ccccc1 (stereo not given) | 3.98 nM (active)
O=C1Cc2cc(-c3ccccc3)cnc2N1 | 63100 nM (active)

Molecular target: Dual specificity mitogen-activated protein kinase kinase 1 (Homo sapiens, UniProt Q02750)
Sequence (Q02750 whole entry): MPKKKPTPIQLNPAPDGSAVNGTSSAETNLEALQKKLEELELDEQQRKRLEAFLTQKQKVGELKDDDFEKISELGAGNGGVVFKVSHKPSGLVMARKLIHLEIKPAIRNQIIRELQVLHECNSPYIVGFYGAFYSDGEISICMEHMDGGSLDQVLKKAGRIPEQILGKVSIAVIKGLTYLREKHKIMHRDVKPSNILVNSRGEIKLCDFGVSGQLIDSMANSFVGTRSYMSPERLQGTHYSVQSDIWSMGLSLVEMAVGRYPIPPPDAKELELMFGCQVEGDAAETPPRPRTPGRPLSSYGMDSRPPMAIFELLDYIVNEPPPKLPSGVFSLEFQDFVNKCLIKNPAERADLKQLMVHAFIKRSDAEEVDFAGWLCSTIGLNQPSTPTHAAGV
Experiment: Navigating the Kinome. Panel member name: MAP2K1
Type: functional

Compound | Ki
O=C1Nc2cc(-c3ccc(O)cc3)ccc2C1=Cc1ccc[nH]1 | 1260 nM (active)
NC(COc1cncc(-c2ccc3c(c2)C(=Cc2ccc[nH]2)C(=O)N3)c1)Cc1ccccc1 (stereo not given) | 316 nM (active)
O=C1Cc2cc(-c3ccccc3)cnc2N1 | 79400 nM (active)

Molecular target: Serine/threonine-protein kinase pim-1 (Homo sapiens, UniProt P11309)
Sequence (P11309 whole entry): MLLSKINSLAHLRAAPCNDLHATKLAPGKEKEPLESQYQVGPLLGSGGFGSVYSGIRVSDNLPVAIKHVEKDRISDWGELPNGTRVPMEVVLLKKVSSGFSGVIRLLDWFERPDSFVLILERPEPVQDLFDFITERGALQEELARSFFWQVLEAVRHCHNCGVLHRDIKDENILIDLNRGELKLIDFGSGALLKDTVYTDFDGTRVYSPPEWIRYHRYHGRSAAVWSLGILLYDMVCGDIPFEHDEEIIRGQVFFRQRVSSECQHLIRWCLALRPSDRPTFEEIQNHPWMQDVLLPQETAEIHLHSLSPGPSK
Type: functional

Compound | Ki
O=C1Nc2cc(-c3ccc(O)cc3)ccc2C1=Cc1ccc[nH]1 | 251 nM (active)
NC(COc1cncc(-c2ccc3c(c2)C(=Cc2ccc[nH]2)C(=O)N3)c1)Cc1ccccc1 (stereo not given) | 631 nM (active)
O=C1Cc2cc(-c3ccccc3)cnc2N1 | 50100 nM (active)

Molecular target: T2, Aurora kinase A (Homo sapiens, UniProt O14965);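 also: value from the Navigating the Kinome kinase panel profiling, panel entry STK6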
T2 sequence (O14965 whole entry): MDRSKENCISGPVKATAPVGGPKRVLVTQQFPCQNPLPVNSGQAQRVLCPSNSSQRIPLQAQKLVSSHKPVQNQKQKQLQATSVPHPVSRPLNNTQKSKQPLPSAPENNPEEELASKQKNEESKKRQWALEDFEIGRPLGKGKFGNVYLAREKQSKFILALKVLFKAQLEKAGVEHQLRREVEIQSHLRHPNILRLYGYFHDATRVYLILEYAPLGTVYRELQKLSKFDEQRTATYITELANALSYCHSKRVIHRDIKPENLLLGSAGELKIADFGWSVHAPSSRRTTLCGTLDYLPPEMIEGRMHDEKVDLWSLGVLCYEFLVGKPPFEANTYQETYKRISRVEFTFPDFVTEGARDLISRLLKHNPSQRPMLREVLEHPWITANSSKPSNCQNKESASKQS
Type: functional

Compound | Ki
O=C1Nc2cc(-c3ccc(O)cc3)ccc2C1=Cc1ccc[nH]1 | > 1580 nM (inactive)
NC(COc1cncc(-c2ccc3c(c2)C(=Cc2ccc[nH]2)C(=O)N3)c1)Cc1ccccc1 (stereo not given) | 251 nM (active)
O=C1Cc2cc(-c3ccccc3)cnc2N1 | 20000 nM (active)

Molecular target: Hepatocyte growth factor receptor (Homo sapiens, UniProt P08581);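 also: kinase panel profiling across the kinome, with MET as the panel member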
Sequence (P08581 whole entry): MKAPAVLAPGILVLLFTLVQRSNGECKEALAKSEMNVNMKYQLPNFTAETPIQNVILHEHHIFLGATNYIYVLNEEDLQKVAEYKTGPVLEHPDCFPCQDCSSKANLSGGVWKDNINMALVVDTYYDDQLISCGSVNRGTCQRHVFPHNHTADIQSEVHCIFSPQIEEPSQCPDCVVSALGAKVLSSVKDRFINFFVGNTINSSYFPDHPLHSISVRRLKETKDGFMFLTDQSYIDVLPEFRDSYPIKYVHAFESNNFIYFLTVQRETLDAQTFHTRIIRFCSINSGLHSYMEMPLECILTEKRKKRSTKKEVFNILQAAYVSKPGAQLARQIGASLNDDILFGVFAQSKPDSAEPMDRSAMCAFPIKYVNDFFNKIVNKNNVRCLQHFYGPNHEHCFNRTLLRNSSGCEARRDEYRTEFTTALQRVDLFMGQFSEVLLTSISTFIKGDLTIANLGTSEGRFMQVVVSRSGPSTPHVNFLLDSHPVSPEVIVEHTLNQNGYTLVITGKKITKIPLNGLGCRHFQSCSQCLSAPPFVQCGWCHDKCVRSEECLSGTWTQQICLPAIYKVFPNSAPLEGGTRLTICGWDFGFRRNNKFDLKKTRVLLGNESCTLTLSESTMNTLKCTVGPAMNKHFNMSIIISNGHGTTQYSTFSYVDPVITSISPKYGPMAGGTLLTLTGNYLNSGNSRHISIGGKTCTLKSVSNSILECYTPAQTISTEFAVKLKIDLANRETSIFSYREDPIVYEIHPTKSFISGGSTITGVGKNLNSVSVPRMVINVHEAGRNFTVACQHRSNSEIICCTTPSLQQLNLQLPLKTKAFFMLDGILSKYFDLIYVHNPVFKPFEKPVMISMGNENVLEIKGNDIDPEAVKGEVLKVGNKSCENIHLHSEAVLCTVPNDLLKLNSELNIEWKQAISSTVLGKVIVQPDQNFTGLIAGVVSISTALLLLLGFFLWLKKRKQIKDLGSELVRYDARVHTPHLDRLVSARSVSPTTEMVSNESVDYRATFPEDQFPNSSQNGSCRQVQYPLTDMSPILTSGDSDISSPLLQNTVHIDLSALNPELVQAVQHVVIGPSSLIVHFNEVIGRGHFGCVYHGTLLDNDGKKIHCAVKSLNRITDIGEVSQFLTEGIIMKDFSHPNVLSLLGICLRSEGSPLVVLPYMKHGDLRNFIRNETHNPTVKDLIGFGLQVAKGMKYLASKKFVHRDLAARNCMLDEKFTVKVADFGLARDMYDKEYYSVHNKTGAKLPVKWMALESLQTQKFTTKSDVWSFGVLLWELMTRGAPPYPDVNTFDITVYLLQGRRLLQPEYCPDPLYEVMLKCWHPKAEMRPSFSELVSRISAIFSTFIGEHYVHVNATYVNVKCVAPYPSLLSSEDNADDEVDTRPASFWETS
Type: functional

Compound | Ki
O=C1Nc2cc(-c3ccc(O)cc3)ccc2C1=Cc1ccc[nH]1 | 2510 nM (active)
NC(COc1cncc(-c2ccc3c(c2)C(=Cc2ccc[nH]2)C(=O)N3)c1)Cc1ccccc1 (stereo not given) | 316 nM (active)
O=C1Cc2cc(-c3ccccc3)cnc2N1 | 25100 nM (active)

Molecular target: Cyclin-dependent kinase 5 (Homo sapiens, UniProt Q00535);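 also: CDK5 measured as one member of a kinase profiling panel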
Sequence (Q00535 whole entry): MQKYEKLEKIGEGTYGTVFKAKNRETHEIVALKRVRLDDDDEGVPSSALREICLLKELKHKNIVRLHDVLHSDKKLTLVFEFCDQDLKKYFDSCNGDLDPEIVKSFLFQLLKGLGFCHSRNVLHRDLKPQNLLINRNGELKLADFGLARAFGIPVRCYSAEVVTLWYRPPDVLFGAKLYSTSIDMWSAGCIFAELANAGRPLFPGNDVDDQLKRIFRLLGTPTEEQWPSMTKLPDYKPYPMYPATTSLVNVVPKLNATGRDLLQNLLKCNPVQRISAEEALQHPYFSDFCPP
Type: functional

Compound | Ki
O=C1Nc2cc(-c3ccc(O)cc3)ccc2C1=Cc1ccc[nH]1 | > 3160 nM (inactive)
NC(COc1cncc(-c2ccc3c(c2)C(=Cc2ccc[nH]2)C(=O)N3)c1)Cc1ccccc1 (stereo not given) | 0.631 nM (active)
O=C1Cc2cc(-c3ccccc3)cnc2N1 | 25100 nM (active)

Molecular target: Dual specificity tyrosine-phosphorylation-regulated kinase 1B (Homo sapiens, UniProt Q9Y463)
Sequence (Q9Y463 whole entry): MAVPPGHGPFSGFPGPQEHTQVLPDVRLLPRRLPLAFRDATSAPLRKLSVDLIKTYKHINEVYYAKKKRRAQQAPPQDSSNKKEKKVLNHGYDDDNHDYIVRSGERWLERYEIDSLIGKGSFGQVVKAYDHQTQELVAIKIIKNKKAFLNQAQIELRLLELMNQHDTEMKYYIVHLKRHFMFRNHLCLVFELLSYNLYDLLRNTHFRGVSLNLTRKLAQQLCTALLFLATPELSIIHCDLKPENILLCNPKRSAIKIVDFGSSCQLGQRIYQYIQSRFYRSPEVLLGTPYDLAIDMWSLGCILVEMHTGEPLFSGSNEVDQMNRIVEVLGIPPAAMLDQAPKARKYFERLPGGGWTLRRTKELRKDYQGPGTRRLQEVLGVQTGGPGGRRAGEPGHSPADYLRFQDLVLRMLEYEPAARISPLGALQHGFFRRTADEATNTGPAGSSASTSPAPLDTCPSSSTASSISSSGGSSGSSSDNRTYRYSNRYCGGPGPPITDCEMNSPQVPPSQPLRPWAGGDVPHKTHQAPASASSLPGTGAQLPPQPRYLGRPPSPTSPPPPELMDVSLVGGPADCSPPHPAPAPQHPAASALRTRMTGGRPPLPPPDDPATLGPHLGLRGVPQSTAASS
Experiment: Navigating the Kinome. Panel member name: DYRK1B
Type: functional

Compound | Ki
O=C1Nc2cc(-c3ccc(O)cc3)ccc2C1=Cc1ccc[nH]1 | 398 nM (active)
NC(COc1cncc(-c2ccc3c(c2)C(=Cc2ccc[nH]2)C(=O)N3)c1)Cc1ccccc1 (stereo not given) | 1 nM (active)
O=C1Cc2cc(-c3ccccc3)cnc2N1 | 50100 nM (active)

Molecular target: Leucine-rich repeat serine/threonine-protein kinase 2 (Homo sapiens, UniProt Q5S007);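 also: value from a broad kinome-wide panel profiling study in which LRRK2 was one of the kinases tested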
Type: functional

Compound | Ki
O=C1Nc2cc(-c3ccc(O)cc3)ccc2C1=Cc1ccc[nH]1 | 7.94 nM (active)
NC(COc1cncc(-c2ccc3c(c2)C(=Cc2ccc[nH]2)C(=O)N3)c1)Cc1ccccc1 (stereo not given) | 6.31 nM (active)
O=C1Cc2cc(-c3ccccc3)cnc2N1 | 20000 nM (active)

Molecular target: Cyclin-dependent kinase 7 (Homo sapiens, UniProt P50613);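 also: value comes from a kinome-wide kinase profiling panel in which CDK7 is one member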
Sequence (P50613 whole entry): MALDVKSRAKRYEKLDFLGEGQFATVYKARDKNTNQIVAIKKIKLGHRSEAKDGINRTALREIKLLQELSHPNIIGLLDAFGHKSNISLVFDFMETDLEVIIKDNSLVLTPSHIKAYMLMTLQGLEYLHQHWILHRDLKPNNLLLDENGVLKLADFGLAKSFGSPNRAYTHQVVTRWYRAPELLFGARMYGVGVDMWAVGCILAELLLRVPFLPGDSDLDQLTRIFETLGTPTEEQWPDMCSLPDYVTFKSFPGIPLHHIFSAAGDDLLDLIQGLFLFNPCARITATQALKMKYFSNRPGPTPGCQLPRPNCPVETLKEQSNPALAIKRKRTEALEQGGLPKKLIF
Type: functional

Compound | Ki
O=C1Nc2cc(-c3ccc(O)cc3)ccc2C1=Cc1ccc[nH]1 | > 3980 nM (inactive)
NC(COc1cncc(-c2ccc3c(c2)C(=Cc2ccc[nH]2)C(=O)N3)c1)Cc1ccccc1 (stereo not given) | 10 nM (active)
O=C1Cc2cc(-c3ccccc3)cnc2N1 | 39800 nM (active)

Molecular target: Glycogen synthase kinase-3 beta (Homo sapiens, UniProt P49841);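 also: value comes from a broad kinome profiling panel, with GSK3B as the panel member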
Type: functional

Compound | Ki
O=C1Nc2cc(-c3ccc(O)cc3)ccc2C1=Cc1ccc[nH]1 | 501 nM (active)
NC(COc1cncc(-c2ccc3c(c2)C(=Cc2ccc[nH]2)C(=O)N3)c1)Cc1ccccc1 (stereo not given) | 2.51 nM (active)
O=C1Cc2cc(-c3ccccc3)cnc2N1 | 15800 nM (active)

Molecular target: cAMP-dependent protein kinase catalytic subunit alpha (Homo sapiens, UniProt P17612)
Type: functional

Compound | Ki
O=C1Nc2cc(-c3ccc(O)cc3)ccc2C1=Cc1ccc[nH]1 | > 1260 nM (inactive)
NC(COc1cncc(-c2ccc3c(c2)C(=Cc2ccc[nH]2)C(=O)N3)c1)Cc1ccccc1 (stereo not given) | 1.26 nM (active)
O=C1Cc2cc(-c3ccccc3)cnc2N1 | > 50100 nM (inactive)

Molecular target: Macrophage colony-stimulating factor 1 receptor (Homo sapiens, UniProt P07333);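 also: value comes from the Navigating the Kinome screening panel, CSF1R member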
Sequence (P07333 whole entry): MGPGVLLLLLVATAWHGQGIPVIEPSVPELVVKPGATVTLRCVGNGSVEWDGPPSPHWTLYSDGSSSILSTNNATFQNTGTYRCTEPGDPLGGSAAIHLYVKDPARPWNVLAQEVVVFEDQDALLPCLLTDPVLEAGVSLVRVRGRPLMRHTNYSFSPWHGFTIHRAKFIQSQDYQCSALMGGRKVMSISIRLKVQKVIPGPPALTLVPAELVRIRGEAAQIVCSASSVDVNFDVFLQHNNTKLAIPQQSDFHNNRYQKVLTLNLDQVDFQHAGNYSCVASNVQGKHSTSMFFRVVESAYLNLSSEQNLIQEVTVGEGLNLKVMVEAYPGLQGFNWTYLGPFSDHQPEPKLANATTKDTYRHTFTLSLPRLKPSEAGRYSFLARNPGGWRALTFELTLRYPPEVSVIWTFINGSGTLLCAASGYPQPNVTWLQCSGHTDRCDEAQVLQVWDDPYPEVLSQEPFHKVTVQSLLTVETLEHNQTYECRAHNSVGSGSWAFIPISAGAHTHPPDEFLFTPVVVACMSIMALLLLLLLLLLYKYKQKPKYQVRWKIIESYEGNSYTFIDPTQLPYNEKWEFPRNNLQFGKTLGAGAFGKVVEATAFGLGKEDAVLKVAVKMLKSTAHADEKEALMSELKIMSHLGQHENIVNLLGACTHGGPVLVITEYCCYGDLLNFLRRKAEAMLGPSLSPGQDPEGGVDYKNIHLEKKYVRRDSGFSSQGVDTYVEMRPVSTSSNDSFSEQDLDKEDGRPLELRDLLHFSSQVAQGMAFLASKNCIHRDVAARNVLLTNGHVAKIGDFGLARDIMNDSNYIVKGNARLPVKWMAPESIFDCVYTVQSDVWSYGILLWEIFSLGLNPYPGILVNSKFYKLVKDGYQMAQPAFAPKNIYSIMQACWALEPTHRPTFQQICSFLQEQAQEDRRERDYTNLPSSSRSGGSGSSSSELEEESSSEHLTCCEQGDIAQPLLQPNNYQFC
Type: functional

Compound | Ki
O=C1Nc2cc(-c3ccc(O)cc3)ccc2C1=Cc1ccc[nH]1 | 1260 nM (active)
NC(COc1cncc(-c2ccc3c(c2)C(=Cc2ccc[nH]2)C(=O)N3)c1)Cc1ccccc1 (stereo not given) | 631 nM (active)
O=C1Cc2cc(-c3ccccc3)cnc2N1 | 63100 nM (active)

Molecular target: Dual specificity mitogen-activated protein kinase kinase 2 (Homo sapiens, UniProt P36507)
Experiment: Navigating the Kinome. Panel member name: MAP2K2
Type: functional

Compound | Ki
O=C1Nc2cc(-c3ccc(O)cc3)ccc2C1=Cc1ccc[nH]1 | > 3980 nM (inactive)
NC(COc1cncc(-c2ccc3c(c2)C(=Cc2ccc[nH]2)C(=O)N3)c1)Cc1ccccc1 (stereo not given) | 316 nM (active)
O=C1Cc2cc(-c3ccccc3)cnc2N1 | 50100 nM (active)

Molecular target: Dual specificity tyrosine-phosphorylation-regulated kinase 1A (Homo sapiens, UniProt Q13627);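 also: measured against DYRK1A as one member of a broad kinome profiling panel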
Type: functional

Compound | Ki
O=C1Nc2cc(-c3ccc(O)cc3)ccc2C1=Cc1ccc[nH]1 | > 2000 nM (inactive)
NC(COc1cncc(-c2ccc3c(c2)C(=Cc2ccc[nH]2)C(=O)N3)c1)Cc1ccccc1 (stereo not given) | 0.398 nM (active)
O=C1Cc2cc(-c3ccccc3)cnc2N1 | 39800 nM (active)
